{"source": "patent US6984729B1", "about": "“Oligonucleotides specific for hepatitis B virus” (priority 1995, dated 2006)", "key": {"[1]": {"test_system": "internally 32P-labelled HBV precore-core RNA (epsilon region)", "assay": "RNase H cleavage of HBV precore-core RNA with noncontiguous oligonucleotides targeted to the epsilon region", "format": "biochemical, hepatitis B virus", "conditions": "for total RNA cleavage by RNase H: 10+10 and 12+12 noncontiguous oligonucleotides versus mixtures of arms, FIGS. 5A, 6A; for double cleavage (twice cleaved product) by RNase H on both sides of the epsilon stem: FIGS. 5B, 6B", "protocol": "To determine whether an oligonucleotide of the invention is capable of successfully hybridizing to its target, an RNase H assay was performed (Frank et al. (1993) Proc. Int. Conf. Nucleic Acid Med. Applns. 1:4.14(abstract)). This assay is useful when a region of at least four contiguous nucleotides of the oligonucleotide is DNA and the target is RNA. Hybridization of the DNA portion of the oligonucleotide to the RNA target is identified by cleavage at that site by RNase H.\nNoncontiguous oligonucleotides targeted to the HBV epsilon region have also been prepared and tested. The epsilon region is characterized by an RNA stem-loop structure consisting primarily of double-stranded RNA with a single-stranded bulge and loop of 6 bases each (FIG. 3). […] The ability of RNase H to cleave an RNA in this manner inflicts greater damage on the RNA than normal antisense oligodeoxynucleotides, while allowing the targeting of a biologically important region that is otherwise difficult to target due to its double-stranded nature.\nBased on this information, several oligodeoxynucleotide phosphorothioates were prepared to test the hypothesis that hybridization by mode B is preferred when spanning the base of an RNA stem. 20mer and 24mer noncontiguous oligonucleotides (Table 2) were prepared as well as the 10mers and 12mers corresponding to the “arms” of the noncontiguous sequences.\nIf a single oligodeoxynucleotide were able to bind across the base of epsilon to sequences on either side of the stem, RNase H might cleave both sites and effectively cut out the epsilon stem-loop from the RNA. […] The 12+12 noncontiguous phosphorothioates show the same ability to bind across the base of the RNA stem. […] Double cleavage of the transcript in the presence of the mixture of 12mer arms (HBV71+HBV72) was much slower (FIG. 6B).\nWhen oligonucleotides hybridizing via mode B were lengthened to allow strand invasion of the RNA stem, disruption of the stem-loop structure occurred. Oligonucleotides HBV89 (SEQ ID NO:39), HBV90 (SEQ ID NO:40), and HBV91 (SEQ ID NO:41) bind across the base of epsilon via mode B and strand invade on either the 5 side (HBV89) or the 3′ side (HBV90 and HBV91) of the RNA stem. HBV89M is an extension of HBV64M with ten 2′-O-methyl RNA residues invading the RNA stem on the 5′-side. Addition of these strand invading nucleotides increased the cleavage efficiency from 23% to 32% at 100 nM oligonucleotide.\nUniformally ^32P-labelled RNA was prepared from 1 μg linearized plasmid using the Ambion MEGAscript In Vitro Transcription Kit (Ambion, Inc., Austin, Tex.) according to the manufacturers' instructions, using [α-^32p] CTP as the radioactive label. The RNA was treated with RNase-free DNase I (Ambion, Inc., Austin, Tex.), extracted with phenol:chloroform: isoamyl alcohol (25:24:1) and purified from nucleotides and nucleosides on a G-50 Sephadex spin column (Boehringer-Mannheim, Indianapolis, Ind., or Pharmacia, Uppsala, Sweden).\nIn 9 μl 1× RNase H buffer (40 mM Tris-HCl pH 7.4, 4 mM MgCl2, 1 mM DTT), 20–100 nM labelled RNA and 100 nM oligonucleotides were preincubated for 15 min at 37° C. 1 μl RNase H (1 U/μl) was added, and the reaction was incubated at 37° C. for 10 min. The reactions were quenched and analyzed as described above.\nQuantitation of the cleavage products was performed using software supplied with the Phosphorimager (Molecular Dynamics, Sunnyvale, Calif., or Bio-Rad Laboratories, Hercules, Calif.). “Counts” were determined by drawing a box around the band of interest and subtracting the background determined with a box drawn nearby. Counts in a product band were compared to total counts in the lane above that band to determine % cleavage."}, "[2]": {"test_system": "HBV genomes in the supernatants from HepG2.2.15 cells", "assay": "Kinetic PCR HBV anti-viral assay on supernatants from HepG2.2.15 cells", "format": "cell-based, hepatitis B virus", "conditions": "copy number of HBV genomes in HepG2.2.15 supernatants, day 10", "protocol": "In addition to Southern hybridizations, kinetic PCR was performed to assay the supernatants from the HepG2.2.15 cells. This procedure was carried out as described by Higuchi et al. (Biotechnol. (1993) 11:1026–1030). All PCRs were carried out with two sets of external controls which consisted of a dilution series of a known concentration of plasmid DNA that contained the HBV core gene amplified with the same primer set. These controls generated a standard curve that was used to calculate the copy number of HBV genomes in the supernatants from cells exposed to the various dilutions of compound.\nThe anti-viral assay was performed using HepG 2.2.15 cells (Sells et al. ([…]) Proc. Natl. Acad. Sci. (USA) 84:1005–1009) seeded at a density of 1×10^5 per well in 24 well plates. The cells were grown to confluence and allowed to stabilize for 2–3 days in RPMI media (supplemented with 10% fetal calf serum (FCS), 2 mM glutamine and penstrep (Life Technologies Ltd., Paisley, Scotland) prior to the addition of the oligonucleotide (defined as day 0). Six dilutions (10, 5, 1, 0.5, 0.1, and 0 μM) were set up in duplicate for each of the antisense oligonucleotides. In each assay run, the nucleoside analog, β-L-(2R,5S)-1,3 oxathiolanyl cytosine (3TC) (Glaxo, Greenford, U.K.) was included as positive control at 0.5, 0.1, 0.075, 0.05, and 0.01 and 0 μM in duplicate. Oligonucleotide was added to 1 ml of RPMI media (supplemented with 3% FCS, 2 mM glutamine and penstrep) at each of the indicated dilutions. At days 2, 4 and 7, the old media was removed and replaced with fresh media containing compound. At day 10, the supernatants were harvested, clarified by low speed centrifugation, prior to the addition of Triton X100 (Sigma, St. Louis, Mo.) and tri-n-butyl phosphate to give a final concentration of 1%. The samples were then heated to 70° C. for 20 minutes to disrupt the viral particles.\nFollowing this treatment, the viral particles were subject to analysis by kinetic PCR. The primers RJ407 (SEQ ID NO:51) and RJ431 (SEQ ID NO:52) were used to detect a 205 bp fragment of the core gene. Kinetic PCR was performed essentially as described by Higuchi et al. (Biotechnol. (1993) 11:1026–1030). Briefly, the PCR reactions were set up under standard conditions except that ethidium bromide was included at a concentration of 4 μg/ml. […] A kinetic PCR analysis was performed by plotting the average intensity of fluorescence from each PCR sample after each annealing/extension cycle against the cycle number. The original template concentration can be calculated by utilizing a standard fluorescence curve generated by templates of known concentration."}, "HBVpol RNA": {"test_system": "HBVpol RNA", "assay": "In vitro translation assay (wheat germ translation system)", "format": "biochemical, hepatitis B virus", "conditions": "FIG. 8", "protocol": "The oligonucleotides of the invention can be assayed for antisense inhibitory activity with a number of different assays. For example, an in vitro translation assay can be used to test antisense activity in which an antisense oligonucleotide can inhibit synthesis of a protein product encoded by the targeted mRNA. In such an assay, oligonucleotides targeted to the polymerase gene were tested against both target and an unrelated control RNA in the wheat germ translation system. […] Results are represented graphically in FIG. 7.\nThis assay was also used to compare the activity of mismatched oligonucleotides to the activity of the parent oligonucleotide. Four such oligonucleotides, all derivatives of HBVpol-2 (HBVpol-A, SEQ ID NO:46; HBVpol-B, SEQ ID NO:47; HBVpol-C, SEQ ID NO:48, HBVpol-D, SEQ ID NO:49) (Table 1) were synthesized and tested in the assay.\nThe 5′ end of the polymerase gene (pol) open reading frame, nt 2292–2942, was amplified by the PCR from the full length HBV clone pCH3/3097 (Bartenschlager et al. (1992) Nucleic Acids Res. 20:195–202). The 5′ amplification primer AS10 (SEQ ID NO:55) encoded an EcoRI site. The 3′ amplification primer AS11 (SEQ ID NO:56) both encoded a PstI site and introduced a stop codon in the place of a leucine codon at position 2942–2944. The PCR product was digested with EcoRI and PstI (Promega, Madison, Wis.) and inserted into similarly digested plasmid vector pGEM-3z (Promega, Madison, Wis.). The resulting recombinant plasmid was recut with PstI and an oligonucleot-ide dA:dT(30) linker was introduced.\nB. In vitro Transcription of RNA pHBVpol and a second plasmid pHSVProt were linearized with HindIII (Promega, Madison, Wis.), RNA was in vitro transcribed from each construct using T7 Cap-Scribe reagents (Boehringer-Mannheim, Indianapolis, Ind.) employed as per the manufacturer's instructions. The quantity and quality of the RNA's was assessed on a 2% agarose/formaldehyde gel. The control HSVProt RNA was arbitrarily diluted 10 fold to 200 ng/μl and stored in 20 μl aliquots at −80° C.\nIn this series of experiments only phosphodiester (PO) oligonucleotides were used. 5 μM, 2.5 μM, and 1.25 μM stocks of each of HBVpol-1, HBVpol-2, HBVpol-3, and randomer were made up and stored frozen. Reactions were set up using 100 ng HBVpol and 200 ng pHSVprot. The volume of water in the translation master mix was reduced to allow the addition of 1 μl of each dilution of each oligonucleotide to the reactions whilst maintaining the final volume at 12 μl. This corresponds to final oligonucleotide concentrations of approximately 400 nM, 200 nM, and 100 nM."}}, "note": "Strand notation (5' to 3'): a small letter for the sugar, then the base; units joined by * are phosphorothioate-linked, units joined directly phosphodiester-linked; [ ] holds rarer units or linkages, { } end groups; capitals alone tell only the bases. d = 2'-deoxy (DNA)"}
{"substance": "AGAGATGATTTAAGGGTCGATGTCCATGCC (chemistry not given here) [HBV90]", "values": [{"measurement": "strand invasion of the RNA stem evidenced by RNase H cleavage within the stem near the core initiator", "setting": "[1]", "value": "able to strand invade"}]}
{"substance": "AGGCAGAGGTTAAGGGTCGA (antisense dA*dG*dG*dC*dA*dG*dA*dG*dG*dT*dT*dA*dA*dG*dG*dG*dT*dC*dG*dA) [HBV66]", "values": [{"measurement": "total RNA cleavage by RNase H", "setting": "[1]", "value": "activate RNase H cleavage of the transcript more effectively than the mixture of 10mer arms"}, {"measurement": "double cleavage (twice cleaved product) by RNase H on both sides of the epsilon stem", "setting": "[1]", "value": "greater after 10 minutes than in the presence of HBV68"}]}
{"substance": "AGGCAGAGGTTAAGGGTCGATGTCCATGCC (phosphorothioate, further chemistry not given here) [HBV91]", "values": [{"measurement": "strand invasion of the RNA stem evidenced by RNase H cleavage within the stem near the core initiator", "setting": "[1]", "value": "able to strand invade"}]}
{"substance": "GACAUGAACAAGAGAUGAUUTAAGGGTCGA (RNA letters in 5' part, chemistry not given here) [HBV89M]", "values": [{"measurement": "cleavage efficiency", "setting": "[1]; 100 nM oligonucleotide, RNase H", "value": 32, "unit": "%"}]}
{"substance": "GAGGTGAAAAAGTTGCATGG (antisense dG*dA*dG*dG*dT*dG*dA*dA*dA*dA*dA*dG*dT*dT*dG*dC*dA*dT*dG*dG) [HBV48]", "values": [{"measurement": "IC50", "setting": "[2]", "value": 700, "unit": "nM"}]}
{"substance": "GATAGGGGCATTTGGTGcTC (antisense dG*dA*dT*dA*dG*dG*dG*dG*dC*dA*dT*dT*dT*dG*dG*dT*dG*dC*dT*dC) [HBVpol-C, single mismatch derivative of HBVpol-2]", "values": [{"measurement": "antisense activity of mismatched oligonucleotides compared to parent HBVpol-2", "setting": "HBVpol RNA", "value": "varying degrees of reduction in activity"}]}
{"substance": "GATAGGGGCcTTTGGTGGTC (antisense dG*dA*dT*dA*dG*dG*dG*dG*dC*dC*dT*dT*dT*dG*dG*dT*dG*dG*dT*dC) [HBVpol-B, single mismatch derivative of HBVpol-2]", "values": [{"measurement": "antisense activity of mismatched oligonucleotides compared to parent HBVpol-2", "setting": "HBVpol RNA", "value": "varying degrees of reduction in activity"}]}
{"substance": "GAcAGGGGCATTTGGTGGTC (antisense dG*dA*dC*dA*dG*dG*dG*dG*dC*dA*dT*dT*dT*dG*dG*dT*dG*dG*dT*dC) [HBVpol-A, single mismatch derivative of HBVpol-2]", "values": [{"measurement": "antisense activity of mismatched oligonucleotides compared to parent HBVpol-2", "setting": "HBVpol RNA", "value": "varying degrees of reduction in activity"}]}
{"substance": "GAcAGGGGCcTTTGGTGcTC (antisense dG*dA*dC*dA*dG*dG*dG*dG*dC*dC*dT*dT*dT*dG*dG*dT*dG*dC*dT*dC) [HBVpol-D, three mismatches, derivative of HBVpol-2, reference compound]", "values": [{"measurement": "antisense activity of mismatched oligonucleotides compared to parent HBVpol-2", "setting": "HBVpol RNA", "value": "abrogated antisense activity"}]}
{"substance": "TAAGGGTCGAAGGCAGAGGT (antisense dT*dA*dA*dG*dG*dG*dT*dC*dG*dA*dA*dG*dG*dC*dA*dG*dA*dG*dG*dT) [HBV68]", "values": [{"measurement": "total RNA cleavage by RNase H", "setting": "[1]", "value": "activate RNase H cleavage of the transcript more effectively than the mixture of 10mer arms"}]}
{"substance": "TATAAGGGTCGAAGGCAGAGGTGA (antisense dT*dA*dT*dA*dA*dG*dG*dG*dT*dC*dG*dA*dA*dG*dG*dC*dA*dG*dA*dG*dG*dT*dG*dA) [HBV79]", "values": [{"measurement": "total RNA cleavage by RNase H", "setting": "[1]", "value": "equal"}, {"measurement": "double cleavage (twice cleaved product) by RNase H on both sides of the epsilon stem", "setting": "[1]", "value": "efficiently activate RNase H cleavage on both sides of the stem after only 1.5 minutes"}]}
{"substance": "TCGATGTCCATGCCCCAAAG (phosphorothioate, further chemistry not given here) [HBV4]", "values": [{"measurement": "IC50", "setting": "[2]", "value": 1200, "unit": "nM"}]}
